# Species on record: Rattus norvegicus
# Assay: Inhibition of [3H]GABA (gamma amino butyric acid) uptake in vitro in rat brain synaptosomes
# Assay type: functional
row,Compound,IC50 [µM]
1,O=C(O)C1CCCN(CCC=C(c2ccccc2)c2ccccc2)C1 (stereo not given),0.1
2,O=[PH](O)C1CCCNC1 (stereo not given),24
3,O=[PH](O)C1CCCN(CCC=C(c2ccccc2)c2ccccc2)C1 (stereo not given),53
4,CP(=O)(O)C1CCCNC1 (stereo not given),> 1000
5,O=C(O)C1CCCNC1 (stereo not given) [NIPECOTIC ACID],4

# Reference: ChEMBL document CHEMBL1132070, “Piperidinyl-3-phosphinic acids as novel uptake inhibitors of the neurotransmitter gamma-aminobutyric acid (GABA)” (Bioorg Med Chem Lett, 1999)
